{"source": "patent US7659278B2", "about": "“Use of low molecular weight compounds for preparing a medicament useful in treating mutant p53 mediated diseases” (Aprea AB, priority 2002, dated 2010)", "key": {"Saos-2-His-273 cells [1]": {"test_system": "Saos-2-His-273 cells", "assay": "Colony formation assay, Saos-2-His-273", "format": "cell-based, human", "source_text": "(§1) Colonies were stained with Giemsa and counted 14 days after seeding.\n(§2) The cells were Giemsa stained and scored for the appearance of colonies after 14 days."}, "Saos-2 cells lacking p53": {"test_system": "Saos-2 cells lacking p53", "assay": "Colony formation assay, Saos-2 lacking p53", "format": "cell-based, human", "details": "5 μM, colonies counted after 14 days", "source_text": "as §1, §2"}, "Saos-2-His-273 cells [2]": {"test_system": "Saos-2-His-273 cells", "assay": "Apoptosis induction by FACS (sub-G1, propidium iodide), Saos-2-His-273", "format": "cell-based, human", "details": "for time to apoptosis induction after treatment: data not shown; for p53 dependence of apoptosis induction: presence or absence of doxycyclin", "method": "Induction of apoptosis was determined by FACS analysis of ethanol fixed cells stained with propidium iodide (PI) as percentage of a sub-G1 population. […] The percentage of dead cells in non-treated cultures and in controls treated with caspase inhibitors only was subtracted. […] Hoechst staining was used to stain cell nuclei.\n(§3) Cells were placed on 12-well plate at a density of 30000/cm^2 and treated with compounds. After 48 h incubation cells were harvested by trypsinization, fixed with 70% ethanol, treated with RNase A (0.25 mg/ml) and stained with propidium iodide (0.02 mg/ml). Samples were analyzed on a Becton Dickinson FACScan. Data were analyzed by the CellQuest software, version 3.2.1.\nInduction of cell death was determined by FACS analysis of ethanol-fixed cells stained with propidium iodide (PI) as percentage of sub-G1 population."}, "[3]": {"test_system": "KRC/Y renal carcinoma cells (Phe-176 mutant p53)", "assay": "Apoptosis induction by FACS, KRC/Y cells", "format": "cell-based, human", "details": "MIRA-1 50 μM, PRIMA-1 75 μM", "method": "The percentage of apoptotic cells was detected by FACS analysis as it was described in FIG. 3A.\nas §3\nThus, it appears that the defect caused by substitution of the Cys residue at position 176 is irreversible. The substitution of this Cys residue abolishes the binding of a Zn atom which holds together the DNA-binding loops of the p53 core domain. Therefore, the unfolding of this mutant p53 protein is probably too extensive to be restored."}, "[4]": {"target": "T1, endogenous mutant p53 proteins (Homo sapiens, UniProt P04637, C176F)", "T1 construct": "cellular extracts of human tumor cell lines carrying different p53 mutants as a source for endogenous p53 protein; endogenous in cells; host or cells: human tumour cell lines (e.g. Burkitt lymphoma BL-60; KRC/Y renal carcinoma)", "format": "biochemical", "details": "KRC/Y cell extract", "method": "(§4) PAb421 antibody was added to all reaction mixtures. […] Monoclonal antibody PAb421 was added to the reaction mixtures in lanes 2-8; PAb1801 was added to the reaction mixtures in lanes 9-15.\n(§5) The GST-p53 proteins were prepared as described (Selivanova et al., 1997). Band shift assays were performed in binding buffer containing 100 mM HEPES pH 7.5, 50 mM KCl, 1 mg/ml BSA, 0.1% Triton X-100, 2 mM MgC12 and 1 mM DTT essentially as in (Selivanova et al., 1996)."}, "[5]": {"target": "T2, endogenous mutant p53 proteins (Homo sapiens, UniProt P04637, R282W)", "T2 construct": "cellular extracts of human tumor cell lines carrying different p53 mutants as a source for endogenous p53 protein; endogenous in cells; host or cells: human tumour cell lines (e.g. Burkitt lymphoma BL-60; KRC/Y renal carcinoma)", "format": "biochemical", "details": "cell extracts from Burkitt lymphoma BL-60 cells", "method": "as §4, §5"}, "[6]": {"target": "T3, GST-His-175 mutant p53 protein (Homo sapiens, UniProt P04637, R175H)", "T3 construct": "made in house", "assay": "Band shift assay, GST-His-175 mutant p53", "format": "biochemical", "method": "as §4, §5"}, "[7]": {"test_system": "MDM2 and p21 in SW480 colon carcinoma cells (endogenous His-273 mutant p53)", "assay": "Western blot of MDM2 and p21, SW480", "format": "cell-based, human", "method": "The expression of proteins was analyzed using Western blot. […] FIG. 10C pictures induction of p53 target genes in PRIMA-1-treated SW480 colon carcinoma cells carrying endogenous His-273/Ser-309 mutant p53."}, "[8]": {"target": "T4, GST-wild type p53 protein (Homo sapiens, UniProt P04637)", "T4 construct": "made in house", "assay": "Band shift assay, heat-inactivated GST-wild type p53", "format": "biochemical", "details": "protein inactivated at 37° C. for 30 min", "method": "Lane 3, inactivation of DNA binding of wtp53 by heating.\nas §5\nTherefore, the restoration of the DNA binding of this mutant was regarded as an exceptionally difficult task."}, "[9]": {"test_system": "p53-responsive lacZ reporter in A431 cells (endogenous His-273 mutant p53)", "assay": "p53-responsive lacZ reporter in A431 cells", "format": "cell-based, human", "details": "50 μM for 20 hours"}, "[10]": {"assay": "Toxicity assessment in SCID mice", "format": "in vivo", "method": "(§6) All animal studies were approved by the local animal ethical committee and animal care was in accordance with institutional guidelines. For toxicity assessment, 12 SCID mice (average weight 25 g) were divided in 4 groups. […] Control animals were injected with PBS. We measured weights of the mice for 1 month after the last injection. […] After 3 days the mice were divided into 4 groups. […] Injections were performed twice daily for 3 days. Tumour volume was measured during 2 months.\n(§7) In the untreated control group, the average tumour volume after 59 days was 555.7±284 mm3 (means±SE, n=3)."}, "[11]": {"test_system": "Saos-2-His-273 human tumour xenografts", "assay": "Anti-tumour activity, Saos-2-His-273 xenograft in SCID mice", "format": "in vivo", "details": "after 59 days", "method": "SCID mice were injected with Saos-2-His-273 cells. […] Tumour volumes were measured once in three days for two months.\nas §6, §7"}}, "data": [{"smiles": "CCCOCN1C(=O)C=CC1=O", "note": "[MIRA-1, 1-(propoxymethyl)-maleimide]", "values": [{"measurement": "number of colonies, of untreated control", "setting": "Saos-2-His-273 cells [1]; 5 μM, colonies counted after 14 days", "value": 15, "unit": "%"}, {"measurement": "inhibition of colony formation", "setting": "Saos-2 cells lacking p53", "value": 48, "unit": "%"}, {"measurement": "time to apoptosis induction after treatment", "setting": "Saos-2-His-273 cells [2]", "value": "6 to 12", "unit": "h"}, {"measurement": "p53 dependence of apoptosis induction", "setting": "Saos-2-His-273 cells [2]", "value": "occurred only in the presence of p53 expression"}, {"measurement": "induction of apoptosis", "setting": "[3]", "value": "much less prominent as compared to Saos-2-His-273 cells"}, {"measurement": "reactivation of Phe-176 mutant DNA binding", "setting": "[4]", "value": "not reactivated"}, {"measurement": "restoration of DNA binding of Trp-282 mutant p53", "setting": "[5]", "value": "able to restore the sequence-specific DNA binding of the endogenous Trp-282 mutant p53"}, {"measurement": "restoration of specific DNA binding", "setting": "[6]", "value": "able to restore the specific DNA binding of the GST-His-175 mutant p53 protein"}, {"measurement": "induction of MDM2 and p21", "setting": "[7]", "value": "induced MDM2 and p21"}, {"measurement": "restoration of specific DNA binding after heat inactivation", "setting": "[8]", "value": "able to restore the specific DNA binding of the GST-wild type p53 protein"}]}, {"smiles": "O=C1C2CCN(CC2)C1(CO)CO", "note": "[PRIMA-1, 2,2-bis(hydroxymethyl)-1-azabicyclo[2.2.2]octan-3-one]", "values": [{"measurement": "doses inhibitory in a mutant p53-dependent manner", "setting": "Saos-2-His-273 cells [1]; colony formation, 14 days", "value": "50 to 100", "unit": "µM"}, {"measurement": "time to apoptosis induction after treatment", "setting": "Saos-2-His-273 cells [2]", "value": 48, "unit": "h"}, {"measurement": "p53 dependence of apoptosis induction", "setting": "Saos-2-His-273 cells [2]", "value": "occurred only in the presence of p53 expression"}, {"measurement": "induction of apoptosis", "setting": "[3]", "value": "much less prominent as compared to Saos-2-His-273 cells"}, {"measurement": "lacZ reporter induction", "setting": "[9]", "value": "appearance of lacZ-positive cells"}, {"measurement": "average weight of mice", "setting": "[10]; 100 mg/kg i.v. daily for 5 days, after one month of observation", "value": "20 ± 0.2", "unit": "g"}, {"measurement": "changes in behavior or weight", "setting": "[10]; intravenous injections, compared with untreated control", "value": "did not cause any obvious changes in behavior or weight"}, {"measurement": "average tumour volume", "setting": "[11]; 20 mg/kg i.v. twice a day for three days", "value": "53±48.5", "unit": "mm3"}, {"measurement": "average tumour volume", "setting": "[11]; intratumour 20 mg/kg twice a day for three days", "value": "5.3±2.7", "unit": "mm3"}, {"measurement": "average tumour volume", "setting": "[11]; intravenous 100 mg/kg twice a day for three days", "value": "11.7±8", "unit": "mm3"}, {"measurement": "induction of MDM2 and p21", "setting": "[7]", "value": "induced MDM2 and p21"}, {"measurement": "restoration of specific DNA binding after heat inactivation", "setting": "[8]", "value": "able to restore the specific DNA binding of the GST-wild type p53 protein"}]}]}
